Reference: PMC3637032 (Clinical Pharmacology : Advances and Applications, 2013)

Key:
[1] = Stability of apixaban in human plasma; assay type: in vitro ADME; details: at −20°C
[2] = assay type: in vivo, human
[3] = assay type: in vivo, human; remark: listed apart in the source
[4] = system: breast cancer resistance protein; details: cited from earlier work
[5] = cited from earlier work
hOCT-2 transporters = details: in vitro findings; ref data on file, Bristol-Myers Squibb, Princeton, NJ, USA; cited from earlier work
[6] = compound lacks ionizable groups; cited from earlier work
coagulation factor Xa = details: cited from earlier work
P-glycoprotein = details: apixaban: ref not given; famotidine: ref 20; cited from earlier work
hOCT-2 = details: cited from earlier work
hOCT-1 = details: cited from earlier work
gastric pH = details: cited from earlier work
[7] = cited from earlier work; remark: listed apart in the source
[8] = system: human organic cation transporter (hOCT)-3; details: cited from earlier work

Q: With `COc1ccc(-n2nc(C(N)=O)c3c2C(=O)N(c2ccc(N4CCCCC4=O)cc2)CC3)cc1` [Apixaban, 1-(4-methoxyphenyl)-7-oxo-6-(4-(2-oxopiperidin-1-yl)phenyl)-4,5,6,7-tetrahydro-1H-pyrazolo[3,4-c]pyridine-3-carboxamide] as the compound, how does the “Stability in human plasma” value [1] read?
A: Its value is “at least 589 days”.

Q: And the AUC(0-inf) ([2]; both, human, plasma, po, 10 mg)?
A: Its AUC(0-inf) is 2220 ng·h/mL.

Q: And the AUC(0-t) ([2]; both, human, plasma, po, 10 mg)?
A: The AUC(0-t) was 2190 ng·h/mL.

Q: What about the Cmax ([2]; both, human, plasma, po, 10 mg) of the same compound?
A: Its Cmax is 230 ng/mL.

Q: And the half-life ([2]; both, human, plasma, po, 10 mg)?
A: The half-life was 9.2 h.

Q: What about the “Predose period 2 apixaban concentration as fraction of Cmax” value ([2]; six subjects with measurable predose concentrations) of the same compound?
A: The value was under 1.5%.

Q: What about the “Deaths, serious adverse events, discontinuations, bleeding-related adverse events” value ([3]; 18 healthy subjects, both treatment periods) of the same compound?
A: The value was “No deaths, serious adverse events, discontinuations due to adverse events, or clinically relevant bleeding-related adverse events”.

Q: And the Tolerability ([3]; apixaban 10 mg alone and with famotidine 40 mg, healthy subjects)?
A: Its Tolerability is “well tolerated”.

Q: What about the “Breast cancer resistance protein substrate” value [4] of the same compound?
A: Its value is “substrate”.

Q: And the “Effect of food on apixaban exposure” value [5]?
A: Its value is “no relevant effect”.

Q: And the “Renal excretion as share of total clearance” value [5]?
A: The value was “approximately 27%”.

Q: What about the Elimination half-life ([5]; clinical studies) of the same compound?
A: The Elimination half-life was “approximately 12 hours”.

Q: What about the Oral bioavailability ([5]; clinical studies) of the same compound?
A: Its Oral bioavailability is “approximately 50%”.

Q: And the hOCT-2 substrate (hOCT-2 transporters)?
A: The hOCT-2 substrate was “not a substrate”.

Q: What about the “Aqueous solubility dependence on pH” value [6] of the same compound?
A: The value was “not affected by changes in pH”.

Q: And the “Factor Xa inhibition (description)” value (coagulation factor Xa)?
A: The value was “potent, reversible, direct, and highly selective inhibitor”.

Q: And the P-glycoprotein substrate (P-glycoprotein)?
A: Its P-glycoprotein substrate is “substrate”.

Q: With `NC(N)=Nc1nc(CSCCC(N)=NS(N)(=O)=O)cs1` [famotidine] as the compound, how does the “Inhibition of hOCT-2” value (hOCT-2) read?
A: The value was “moderate inhibitor”.

Q: And the “Effect of coadministration on apixaban Cmax, AUC0–T, or AUC∞” value ([2]; famotidine 40 mg 3 hours before apixaban 10 mg, healthy subjects)?
A: Its value is “no effect”.

Q: What about the “Inhibition of hOCT-1” value (hOCT-1) of the same compound?
A: The value was “moderate inhibitor”.

Q: What about the “Time for gastric pH to return to baseline after cessation of administration” value (gastric pH) of the same compound?
A: Its value is 10–12 hours.

Q: And the “Time of maximal increases in gastric pH post-dose” value (gastric pH)?
A: The value was 1–3 hours.

Q: And the P-glycoprotein substrate (P-glycoprotein)?
A: The P-glycoprotein substrate was “substrate”.

Q: And the Metabolism [7]?
A: Its Metabolism is “minimally metabolized”.

Q: And the “Potential for CYP-mediated drug–drug interactions” value [7]?
A: Its value is “minimal potential”.

Q: And the “Time of maximal plasma concentrations after oral administration” value [7]?
A: Its value is 2 to 3 h.

Q: What about the “Inhibition of hOCT-3” value [8] of the same compound?
A: Its value is “potent inhibitor”.
